From paper PMC10653547, “Synergistic effect of two antimicrobial peptides, BP203 and MAP-0403 J-2 with conventional antibiotics against colistin-resistant Escherichia coli and Klebsiella pneumoniae clinical isolates” (PLOS ONE, 2023)

Columns and labels:
[1] = system: colistin-resistant K. pneumoniae clinical isolates; assay: Checkerboard assay for synergy testing; format: cell-based, Klebsiella pneumoniae
Description: (§1) The synergistic activities of various two-antimicrobial combinations against colistin-resistant E. coli and K. pneumoniae isolates were evaluated using the checkerboard assay, which was performed in 96-well plates. […] Two-fold serial dilutions of peptides and antibiotics were independently prepared in CAMHB. Afterward, a mixture of different concentrations of the antibiotics and peptides was added to the wells of the microplates. Antibiotics and peptides were also dispended alone in the first row and the first column, respectively. Bacterial inoculum was added to the 96-well plate to achieve a final concentration of 5 × 10^5 CFU/mL. Then, plates were incubated at 37 °C for 20–24 h. MICs were recorded as the minimum concentration of antimicrobial agents without bacterial growth. The interaction between the antimicrobials was determined by calculating the fractional inhibitory concentration index (FICI) according to the formula: FICI = FIC(drug A) + FIC(drug B), where FIC = the MIC of the drug when in the combination/MIC of drug tested individually.

[2] = system: colistin-resistant E. coli clinical isolates; assay: Disk diffusion antimicrobial susceptibility testing (CLSI); format: cell-based, Escherichia coli
Description: (§2) Ten non-duplicate clinical isolates of colistin-resistant E. coli (EC) and ten non-duplicate clinical isolates of colistin-resistant K. pneumoniae (KP) were obtained from the bacterial repository of the Division of Infectious Diseases and Tropical Medicine, Department of Medicine, Faculty of Medicine Siriraj Hospital, Mahidol University. The species identification was conducted through standard biochemical tests. Antimicrobial susceptibility testing was carried out using the disk diffusion method following CLSI guidelines. Additionally, the assessment of colistin resistance in all isolates was performed by broth microdilution following CLSI recommendations. […] The amino acid sequences of BP203 and MAP-0403 J-2 were retrieved from previous studies. These peptides are BP100 and MAP-0403 analogs, respectively. […] Antibiotic disks and defibrinated sheep blood were obtained from Oxoid (Basingstoke, UK). All culture media were purchased from Becton Dickinson (Frankin Lakes, NJ, USA). All chemicals were obtained from Sigma-Aldrich (St. Louis, MO, USA).

[3] = system: colistin-resistant K. pneumoniae clinical isolates; assay: as above; format: cell-based, Klebsiella pneumoniae
Description: as §2

[4] = system: colistin-resistant E. coli clinical isolates; assay: Checkerboard assay for synergy testing; format: cell-based, Escherichia coli
Description: as §1

[5] = isolate KP-01, checkerboard Chloramphenicol+BP203
[6] = isolate KP-01, checkerboard Chloramphenicol+MAP-0403 J-2
[7] = isolate KP-02, checkerboard Chloramphenicol+BP203
[8] = isolate KP-02, checkerboard Chloramphenicol+MAP-0403 J-2
[9] = isolate KP-03, checkerboard Chloramphenicol+BP203
[10] = isolate KP-03, checkerboard Chloramphenicol+MAP-0403 J-2
[11] = isolate KP-04, checkerboard Chloramphenicol+BP203
[12] = isolate KP-04, checkerboard Chloramphenicol+MAP-0403 J-2
[13] = isolate KP-05, checkerboard Chloramphenicol+BP203
[14] = isolate KP-05, checkerboard Chloramphenicol+MAP-0403 J-2
[15] = isolate KP-06, checkerboard Chloramphenicol+BP203
[16] = isolate KP-06, checkerboard Chloramphenicol+MAP-0403 J-2
[17] = isolate KP-07, checkerboard Chloramphenicol+BP203
[18] = isolate KP-07, checkerboard Chloramphenicol+MAP-0403 J-2
[19] = isolate KP-08, checkerboard Chloramphenicol+BP203
[20] = isolate KP-08, checkerboard Chloramphenicol+MAP-0403 J-2
[21] = isolate KP-09, checkerboard Chloramphenicol+BP203
[22] = isolate KP-09, checkerboard Chloramphenicol+MAP-0403 J-2
[23] = isolate KP-10, checkerboard Chloramphenicol+BP203
[24] = isolate KP-10, checkerboard Chloramphenicol+MAP-0403 J-2
[25] = isolate EC-01, checkerboard Chloramphenicol+BP203
[26] = isolate EC-01, checkerboard Chloramphenicol+MAP-0403 J-2
[27] = isolate EC-02, checkerboard Chloramphenicol+BP203
[28] = isolate EC-02, checkerboard Chloramphenicol+MAP-0403 J-2
[29] = isolate EC-03, checkerboard Chloramphenicol+BP203
[30] = isolate EC-03, checkerboard Chloramphenicol+MAP-0403 J-2
[31] = isolate EC-04, checkerboard Chloramphenicol+BP203
[32] = isolate EC-05, checkerboard Chloramphenicol+BP203
[33] = isolate EC-05, checkerboard Chloramphenicol+MAP-0403 J-2
[34] = isolate EC-06, checkerboard Chloramphenicol+BP203
[35] = isolate EC-06, checkerboard Chloramphenicol+MAP-0403 J-2
[36] = isolate EC-07, checkerboard Chloramphenicol+BP203
[37] = isolate EC-07, checkerboard Chloramphenicol+MAP-0403 J-2
[38] = isolate EC-08, checkerboard Chloramphenicol+BP203
[39] = isolate EC-08, checkerboard Chloramphenicol+MAP-0403 J-2
[40] = isolate EC-09, checkerboard Chloramphenicol+BP203
[41] = isolate EC-09, checkerboard Chloramphenicol+MAP-0403 J-2
[42] = isolate EC-10, checkerboard Chloramphenicol+BP203
[43] = isolate EC-10, checkerboard Chloramphenicol+MAP-0403 J-2

O=C(N[C@H](CO)[C@H](O)c1ccc([N+](=O)[O-])cc1)C(Cl)Cl [C, chloramphenicol]
MIC alone [1, 5]: 512 µg/mL
MIC combination [1, 5]: 128 µg/mL
MIC alone [1, 6]: 1020 µg/mL
MIC combination [1, 6]: 256 µg/mL
MIC alone [1, 7]: 512 µg/mL
MIC combination [1, 7]: 128 µg/mL
MIC alone [1, 8]: 512 µg/mL
MIC combination [1, 8]: 128 µg/mL
MIC alone [1, 9]: 8 µg/mL
MIC combination [1, 9]: 2 µg/mL
MIC alone [1, 10]: 8 µg/mL
MIC combination [1, 10]: 2 µg/mL
MIC alone [1, 11]: 8 µg/mL
MIC combination [1, 11]: 4 µg/mL
MIC alone [1, 12]: 8 µg/mL
MIC combination [1, 12]: 2 µg/mL
MIC alone [1, 13]: 4 µg/mL
MIC combination [1, 13]: 2 µg/mL
MIC alone [1, 14]: 1020 µg/mL
MIC combination [1, 14]: 256 µg/mL
MIC alone [1, 15]: 512 µg/mL
MIC combination [1, 15]: 128 µg/mL
MIC alone [1, 16]: 32 µg/mL
MIC combination [1, 16]: 8 µg/mL
MIC alone [1, 17]: 512 µg/mL
MIC combination [1, 17]: 128 µg/mL
MIC alone [1, 18]: 8 µg/mL
MIC combination [1, 18]: 4 µg/mL
MIC alone [1, 19]: 4 µg/mL
MIC combination [1, 19]: 1 µg/mL
MIC alone [1, 20]: 8 µg/mL
MIC combination [1, 20]: 4 µg/mL
MIC alone [1, 21]: 32 µg/mL
MIC combination [1, 21]: 4 µg/mL
MIC alone [1, 22]: 32 µg/mL
MIC combination [1, 22]: 16 µg/mL
MIC alone [1, 23]: 64 µg/mL
MIC combination [1, 23]: 8 µg/mL
MIC alone [1, 24]: 64 µg/mL
MIC combination [1, 24]: 4 µg/mL
Interpreted results of disk diffusion ([2]; EC-01): R
Interpreted results of disk diffusion ([2]; EC-02): R
Interpreted results of disk diffusion ([2]; EC-03): R
Interpreted results of disk diffusion ([2]; EC-04): R
Interpreted results of disk diffusion ([2]; EC-05): R
Interpreted results of disk diffusion ([2]; EC-06): S
Interpreted results of disk diffusion ([2]; EC-07): R
Interpreted results of disk diffusion ([2]; EC-08): R
Interpreted results of disk diffusion ([2]; EC-09): R
Interpreted results of disk diffusion ([2]; EC-10): R
%Resistance ([2]; ten E. coli isolates, disk diffusion): 90%
Interpreted results of disk diffusion ([3]; KP-01): R
Interpreted results of disk diffusion ([3]; KP-02): R
Interpreted results of disk diffusion ([3]; KP-03): S
Interpreted results of disk diffusion ([3]; KP-04): S
Interpreted results of disk diffusion ([3]; KP-05): S
Interpreted results of disk diffusion ([3]; KP-06): R
Interpreted results of disk diffusion ([3]; KP-07): I
Interpreted results of disk diffusion ([3]; KP-08): S
Interpreted results of disk diffusion ([3]; KP-09): I
Interpreted results of disk diffusion ([3]; KP-10): R
%Resistance ([3]; ten K. pneumoniae isolates, disk diffusion): 40%
MIC alone [4, 25]: 128 µg/mL
MIC combination [4, 25]: 1 µg/mL
MIC alone [4, 26]: 128 µg/mL
MIC combination [4, 26]: 64 µg/mL
MIC alone [4, 27]: 64 µg/mL
MIC combination [4, 27]: 32 µg/mL
MIC alone [4, 28]: 64 µg/mL
MIC combination [4, 28]: 32 µg/mL
MIC alone [4, 29]: 64 µg/mL
MIC combination [4, 29]: 32 µg/mL
MIC alone [4, 30]: 64 µg/mL
MIC combination [4, 30]: 16 µg/mL
MIC alone [4, 31]: 32 µg/mL
MIC combination [4, 31]: 1 µg/mL
MIC combination ([4]; isolate EC-04, checkerboard Chloramphenicol+MAP-0403 J-2): 128 µg/mL
MIC alone [4, 32]: 64 µg/mL
MIC combination [4, 32]: 32 µg/mL
MIC alone [4, 33]: 64 µg/mL
MIC combination [4, 33]: 32 µg/mL
MIC alone [4, 34]: 16 µg/mL
MIC combination [4, 34]: 4 µg/mL
MIC alone [4, 35]: 8 µg/mL
MIC combination [4, 35]: 4 µg/mL
MIC alone [4, 36]: 256 µg/mL
MIC combination [4, 36]: 64 µg/mL
MIC alone [4, 37]: 64 µg/mL
MIC combination [4, 37]: 32 µg/mL
MIC alone [4, 38]: 64 µg/mL
MIC combination [4, 38]: 32 µg/mL
MIC alone [4, 39]: 64 µg/mL
MIC combination [4, 39]: 16 µg/mL
MIC alone [4, 40]: 256 µg/mL
MIC combination [4, 40]: 64 µg/mL
MIC alone [4, 41]: 256 µg/mL
MIC combination [4, 41]: 64 µg/mL
MIC alone [4, 42]: 256 µg/mL
MIC combination [4, 42]: 32 µg/mL
MIC alone [4, 43]: 256 µg/mL
MIC combination [4, 43]: 64 µg/mL
